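Interpolation was linear, between the two tested concentrations surrounding the appropriate level; five concentrations were tested over 48 hours in 96-well plates. The concentration for 50% growth inhibition is given as GI50. TGI: concentration producing complete growth inhibition.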 Where a SMILES comes first, the peptide text is derived from it.
What was measured:
Experiment in all cases: DTP human tumour cell line panel, 48 h
[1] = system: A498 renal
[2] = system: A549 NSCLC
[3] = system: ACHN renal
[4] = system: BT-549 breast
[5] = system: HCC-2998 colon
[6] = system: HCT-116 colon
[7] = system: MALME-3M melanoma
[8] = system: NCI-H226 lung
[9] = system: SK-MEL-2 melanoma
[10] = system: SK-OV-3 ovarian

Compound	TGI [1]	TGI [2]	TGI [3]	TGI [4]	TGI [5]	TGI [6]	TGI [7]	TGI [8]	TGI [9]	TGI [10]	GI50 [1]	GI50 [3]	GI50 [4]	GI50 [5]	GI50 [6]	GI50 [7]	GI50 [9]	GI50 [10]	GI50 [8]
CCCC(CC)c1cc(O)c(O)cc1C(CC)CCC (stereo unspecified)	> 10 µM	> 10 µM	> 10 µM	> 10 µM	> 10 µM	> 10 µM	> 10 µM	> 10 µM	> 10 µM	> 10 µM									
COC(=O)NC(Nc1ccc(C)cc1)(C(F)(F)F)C(F)(F)F	> 100 µM	> 100 µM	> 100 µM	> 100 µM	> 100 µM	> 100 µM	> 100 µM	> 100 µM	> 100 µM	> 100 µM									
CC(=O)Nc1nc(C)c(S(=O)(=O)NC(=O)N2c3ccccc3CCc3ccccc32)s1	> 100 µM	> 100 µM	> 100 µM	> 100 µM	> 100 µM	> 100 µM	> 100 µM		> 100 µM	> 100 µM									
N#C[C@H]1C(=O)C(c2nc3ccccc3[nH]2)S[C@H]1c1ccccc1 (stereo partly specified)	79 µM	> 100 µM	57.6 µM	92.4 µM	> 100 µM	> 100 µM	> 100 µM	> 100 µM		> 100 µM									
COc1ccc(-c2cc(-c3ccc(OC)c(OC)c3)nc(SCCCC(=O)NO)n2)cc1	3.06 µM		2.29 µM	> 100 µM	5.63 µM	13.7 µM	4.88 µM		5.85 µM	4.93 µM	1390 nM	456 nM	3.8 µM	2140 nM	960 nM	896 nM	2140 nM	1450 nM	
O=C1NC(=S)N/C1=C\c1ccc(Sc2ccccc2C(=O)O)s1	> 100 µM		> 100 µM	> 100 µM	> 100 µM	> 100 µM	> 100 µM	> 100 µM	> 100 µM										
COc1ccc(Nc2nc(NNC(=O)Cc3ccccc3)nc(NNC(=O)c3ccncc3)n2)cc1	> 10 µM	> 10 µM	> 10 µM	> 10 µM	> 10 µM	> 10 µM	> 10 µM			> 10 µM									
c1cc2c3c(c1)[C@@H]1O[C@@H]1c1cccc(c1-3)[C@@H]1O[C@H]21	> 100 µM	> 100 µM	43 µM	98.5 µM		38.5 µM	29.6 µM	> 100 µM	42.5 µM	> 100 µM									
S=c1oc(CCCCCCCCc2nn(CNc3ccc(Cl)cc3)c(=S)o2)nn1CNc1ccc(Cl)cc1	> 100 µM	> 100 µM	> 100 µM	> 100 µM	> 100 µM	> 100 µM	> 100 µM	> 100 µM	> 100 µM	> 100 µM									
O=P1(N(CCCl)CCCl)NCCCO1 (stereo unspecified)	> 250 µM	> 239 µM	> 250 µM	> 250 µM	> 205 µM	> 250 µM	> 250 µM	> 250 µM	> 238 µM	> 250 µM									
COC(C/C=C\C=C\CC/C=C/CC(C)/C=C/C(=C\C(=O)O)CC(=O)O)/C(C)=C\C=C(/C)C(=O)O (stereo unspecified)	> 100 µM	> 100 µM		> 100 µM	> 100 µM	> 100 µM	> 100 µM		> 100 µM	> 100 µM									
CCCCCCCCCCC[N+]1(Cc2ccccc2)CC2CCN(Cc3ccccc3)CC2C1 (stereo unspecified)	2.88 µM	2.43 µM	2.43 µM	1.4 µM	2 µM	1.45 µM	1.26 µM	1.98 µM	0.724 µM	3.13 µM									
Cc1cc2nc3c(N)nn(CCN(C)C)c3nc2cc1C	> 100 µM	> 100 µM	95.5 µM	> 100 µM	> 100 µM	> 100 µM	> 100 µM	79.4 µM	> 100 µM	> 100 µM									
CC(=O)c1cc(S(=O)(=O)c2ccc(O)c(C(C)=O)c2)ccc1O	> 100 µM	> 100 µM	> 100 µM	> 100 µM	> 100 µM	> 100 µM	> 100 µM	> 100 µM	> 100 µM	> 100 µM									
O=C(O)c1cc(Nc2c(O)c3c(c(O)c2Cl)C(=O)C=CC3=O)ccc1O	> 10 µM	> 10 µM	> 10 µM	> 10 µM	> 10 µM	> 10 µM	> 10 µM	> 10 µM		> 10 µM									
CC(C)CCCC(C)[C@H]1CC[C@H]2NCCCC[C@]12C (stereo partly specified)	26.6 µM	31.7 µM	4.78 µM	29.9 µM	2.72 µM	20 µM	16.4 µM	29 µM	7.82 µM	28.4 µM									
Cn1c(=O)[nH]n(-c2ccc3ccccc3c2)c1=O	> 100 µM	> 100 µM	> 100 µM	> 100 µM	> 100 µM	> 100 µM	> 100 µM	> 100 µM	> 100 µM	> 100 µM									
C/C=C\C(CC(=O)NCCc1c[nH]c2ccccc12)CC(=O)OC (stereo unspecified)	> 100 µM	> 100 µM	> 100 µM	> 100 µM	> 100 µM	> 100 µM	> 100 µM		> 100 µM	> 100 µM									
Cc1ccc(C2(N3CCOCC3)OC(C)(C)c3cccc4cccc2c34)cc1 (stereo unspecified)	32.9 µM	29 µM	31.6 µM	33.6 µM		36.9 µM	36.9 µM	35.8 µM	30.5 µM	31.2 µM									
Nc1cc2ncnc(Nc3cccc(Br)c3)c2cn1	36.1 µM	> 100 µM	> 100 µM	> 100 µM		> 100 µM	> 100 µM	71 µM	69.7 µM	74.4 µM									
CCCCNC(=S)Nc1nc(C(=O)NNC(=S)NCc2ccccc2)cs1	> 100 µM	> 100 µM	78.5 µM	> 100 µM	> 100 µM	> 100 µM	> 100 µM	> 100 µM	> 100 µM	> 100 µM									

Compound	TGI [1]	TGI [2]	TGI [3]	TGI [4]	TGI [5]	TGI [6]	TGI [7]	TGI [8]	TGI [9]	TGI [10]	GI50 [1]	GI50 [3]	GI50 [4]	GI50 [5]	GI50 [6]	GI50 [7]	GI50 [9]	GI50 [10]	GI50 [8]
COC(=O)c1c(C)cccc1C1CN=NC12Cc1cccc(C)c1C2=O (stereo unspecified)	> 100 µM	66.8 µM	> 100 µM	88.6 µM	> 100 µM	> 100 µM	87.2 µM	98.4 µM	94.7 µM										
COc1cccc(OC/C(N=Cc2ccncc2)=N/NC(=O)c2ccncc2)c1	> 100 µM	> 100 µM	> 100 µM	> 100 µM	> 100 µM	> 100 µM	> 100 µM	> 100 µM	> 100 µM	> 100 µM									
CCOc1ccccc1N=NC1C(=O)N(C(=O)CC(=O)Nc2ccccc2OC)N=C1C (stereo unspecified)	> 100 µM	> 100 µM	> 100 µM	> 100 µM	> 100 µM	> 100 µM	> 100 µM	> 100 µM	> 100 µM	94.3 µM									
O=c1cnc2cc3ccccc3cc2[nH]1	> 100 µM	> 100 µM	> 100 µM	> 100 µM	> 100 µM	> 100 µM	> 100 µM	> 100 µM	> 100 µM	> 100 µM									
O=C1/C(=C(/Br)I)c2ccccc2-c2ccccc21	30.2 µM	32 µM	19 µM	19.1 µM	11.4 µM	25.2 µM	11.5 µM	35.4 µM	31.5 µM	29.8 µM									
C=C1CC(Cn2cc(Br)c(=O)[nH]c2=O)(c2ccc(Br)cc2)OC1=O (stereo unspecified)	10.2 µM	29 µM	9.4 µM	8.25 µM	8.4 µM	2.75 µM	4.7 µM	36.6 µM	3.74 µM	24.6 µM									
CCOC(=O)COC1=Nc2cc(OC)c(OC)c3nc(Cl)cc(c23)C1=O	23.5 µM	18.3 µM	3.02 µM	3.45 µM	10.5 µM	3.1 µM	2.71 µM	28.6 µM	4.09 µM	24.1 µM									
CC(=O)OCC1(CNc2nc(N)ncc2C#N)CC(CCc2ccccc2)C1 (stereo unspecified)	> 100 µM	> 100 µM	> 100 µM	> 100 µM		> 100 µM	> 100 µM	> 100 µM	> 100 µM										
CCC(C)C(NC(=O)C1CCCN1)C(=O)NC(C(=O)NCC(=O)NC(CC(N)=O)C(=O)NC(CC(C)C)C(=O)NC(CC(C)C)C(=O)NC(CCCCN)C(N)=O)C(C)C (stereo unspecified) (H-PIVGNLLK-NH2; configuration not given here)	> 75 µM	> 75 µM	> 75 µM	> 75 µM		> 75 µM	> 75 µM	> 75 µM	> 75 µM	> 75 µM									
c1ccc2c(c1)ccc1nc(-c3ccc4c(c3)OCO4)c3c(c12)CCC3	> 100 µM	> 100 µM	> 100 µM	> 100 µM	> 100 µM	> 100 µM	> 100 µM	> 100 µM	> 100 µM	> 100 µM									
CCC(=O)Nc1ccc(N2C(=O)/C(=C/c3ccc(O)c(OC)c3)N=C2c2ccccc2)cc1	36.6 µM	> 100 µM	89.9 µM	44.9 µM	> 100 µM	> 100 µM	> 100 µM	50.5 µM	93.5 µM	> 100 µM									
C=C(C)[C@@H]1CC[C@]2(C(=O)OC3OC(COC4OC(CO)C(OC5OC(C)C(O)C(O)C5O)C(O)C4O)C(O)C(O)C3O)CC[C@]3(C)[C@H](CC[C@@H]4[C@@]5(C)CC[C@H](O)[C@@](C)(CO)[C@@H]5CC[C@]43C)[C@@H]12 (stereo partly specified)	> 10 µM	> 10 µM	> 10 µM	> 8.43 µM	> 6.91 µM	> 6.75 µM	> 10 µM	> 10 µM	6.22 µM	> 8.62 µM									
O=C1Sc2cc3ccccc3cc2C(=O)Sc2cc3ccccc3cc21	> 100 µM	> 100 µM	> 63.6 µM	> 100 µM	58.7 µM	38.5 µM	> 93.5 µM	> 100 µM	> 66.5 µM	> 100 µM									
Oc1ccc(O)c(Sc2nnc(CCCCCCCCc3nnc(Sc4cc(O)ccc4O)o3)o2)c1	> 100 µM	> 100 µM	85.9 µM	> 100 µM	> 100 µM	32.5 µM	> 100 µM	> 100 µM	> 100 µM	> 100 µM									
CCCOC1OC(CS(=O)(=O)O)C(OC(C)=O)C(OC(C)=O)C1OC(C)=O (stereo unspecified)	> 100 µM			> 100 µM	> 100 µM	> 100 µM	> 100 µM	> 100 µM	> 100 µM	> 100 µM									
C#Cc1cccc(Nc2ncnc3cc(OCCOC)c(OCCOC)cc23)c1	45.8 µM	> 100 µM	32.2 µM	98.7 µM	> 100 µM	> 100 µM	43 µM	> 100 µM	50.6 µM	5.2 µM	2190 nM		33.4 µM	> 88800 nM		1850 nM			47.4 µM
Cn1cnc(/C=C/C#N)c1	> 100 µM	> 100 µM	> 100 µM	> 100 µM	> 100 µM		> 100 µM	> 100 µM	> 100 µM	> 100 µM									
O=c1oc2ccccc2c(O)c1C(c1ccc(O)cc1)c1c(O)c2ccccc2oc1=O	> 100 µM		> 100 µM	> 100 µM	> 100 µM	> 100 µM	> 100 µM	> 100 µM	> 100 µM										
O=C1/C(=C/C=C/c2ccccc2)CCC1CNc1ccc(Br)cc1 (stereo unspecified)	> 100 µM	> 100 µM	> 100 µM	> 100 µM	> 100 µM	> 100 µM	0.246 µM	> 100 µM		> 100 µM									
CC(=O)NCC1OC2COC(c3ccccc3)OC2C2N=C(c3ccccc3)OC12 (stereo unspecified)	> 100 µM	> 100 µM	> 100 µM	> 100 µM	> 100 µM	> 100 µM	> 100 µM	> 100 µM	> 100 µM	> 100 µM									
O=C(O)Cn1ncn(NC(=O)Cc2ccccc2)c1=S	> 10 µM	> 10 µM	> 10 µM	> 10 µM	> 10 µM	> 10 µM	> 10 µM			> 10 µM									
